Experimental data published in the OligoGym collection.
Oligonucleotides are given in HELM: sugar(base)linkage, 5' to 3'; d 2'-deoxyribose, r ribose, m 2'-O-methylribose, p phosphate. ss, as = sense and antisense strand

Biological target: Mmp7 (rat)
Assay: reporter assay of Huesken 2005
Details: siRNA
Also: test concentration or dose not given here.

Substance	normalised inhibition (eCFP-eYFP dual reporter)
RNA1{r(G)p.r(C)p.r(A)p.r(G)p.r(A)p.r(C)p.r(A)p.r(U)p.r(C)p.r(A)p.r(U)p.r(A)p.r(A)p.r(U)p.r(U)p.r(G)p.r(G)p.r(C)p.r(U)p.d(T)p.d(T)}|RNA2{r(A)p.r(G)p.r(C)p.r(C)p.r(A)p.r(A)p.r(U)p.r(U)p.r(A)p.r(U)p.r(G)p.r(A)p.r(U)p.r(G)p.r(U)p.r(C)p.r(U)p.r(G)p.r(C)p.d(A)p.d(G)}$$$RNA1{StrandType:ss}|RNA2{StrandType:as}$	95.9%
RNA1{r(G)p.r(C)p.r(A)p.r(G)p.r(U)p.r(G)p.r(G)p.r(A)p.r(C)p.r(A)p.r(A)p.r(A)p.r(C)p.r(U)p.r(G)p.r(A)p.r(G)p.r(G)p.r(G)p.d(T)p.d(T)}|RNA2{r(C)p.r(C)p.r(C)p.r(U)p.r(C)p.r(A)p.r(G)p.r(U)p.r(U)p.r(U)p.r(G)p.r(U)p.r(C)p.r(C)p.r(A)p.r(C)p.r(U)p.r(G)p.r(C)p.d(A)p.d(C)}$$$RNA1{StrandType:ss}|RNA2{StrandType:as}$	32.3%
RNA1{r(G)p.r(C)p.r(C)p.r(A)p.r(C)p.r(U)p.r(C)p.r(A)p.r(U)p.r(G)p.r(A)p.r(A)p.r(C)p.r(U)p.r(U)p.r(G)p.r(G)p.r(C)p.r(C)p.d(T)p.d(T)}|RNA2{r(G)p.r(G)p.r(C)p.r(C)p.r(A)p.r(A)p.r(G)p.r(U)p.r(U)p.r(C)p.r(A)p.r(U)p.r(G)p.r(A)p.r(G)p.r(U)p.r(G)p.r(G)p.r(C)p.d(A)p.d(A)}$$$RNA1{StrandType:ss}|RNA2{StrandType:as}$	62.2%
RNA1{r(G)p.r(C)p.r(C)p.r(A)p.r(C)p.r(U)p.r(C)p.r(U)p.r(C)p.r(U)p.r(G)p.r(G)p.r(G)p.r(U)p.r(C)p.r(U)p.r(G)p.r(G)p.r(G)p.d(T)p.d(T)}|RNA2{r(C)p.r(C)p.r(C)p.r(A)p.r(G)p.r(A)p.r(C)p.r(C)p.r(C)p.r(A)p.r(G)p.r(A)p.r(G)p.r(A)p.r(G)p.r(U)p.r(G)p.r(G)p.r(C)p.d(C)p.d(A)}$$$RNA1{StrandType:ss}|RNA2{StrandType:as}$	63.3%
RNA1{r(G)p.r(C)p.r(C)p.r(A)p.r(C)p.r(U)p.r(G)p.r(U)p.r(C)p.r(C)p.r(C)p.r(A)p.r(G)p.r(G)p.r(A)p.r(A)p.r(G)p.r(C)p.r(C)p.d(T)p.d(T)}|RNA2{r(G)p.r(G)p.r(C)p.r(U)p.r(U)p.r(C)p.r(C)p.r(U)p.r(G)p.r(G)p.r(G)p.r(A)p.r(C)p.r(A)p.r(G)p.r(U)p.r(G)p.r(G)p.r(C)p.d(A)p.d(G)}$$$RNA1{StrandType:ss}|RNA2{StrandType:as}$	66%
RNA1{r(G)p.r(C)p.r(C)p.r(A)p.r(G)p.r(A)p.r(U)p.r(G)p.r(U)p.r(U)p.r(G)p.r(C)p.r(A)p.r(G)p.r(A)p.r(A)p.r(U)p.r(U)p.r(C)p.d(T)p.d(T)}|RNA2{r(G)p.r(A)p.r(A)p.r(U)p.r(U)p.r(C)p.r(U)p.r(G)p.r(C)p.r(A)p.r(A)p.r(C)p.r(A)p.r(U)p.r(C)p.r(U)p.r(G)p.r(G)p.r(C)p.d(A)p.d(C)}$$$RNA1{StrandType:ss}|RNA2{StrandType:as}$	100%
RNA1{r(G)p.r(C)p.r(C)p.r(A)p.r(G)p.r(G)p.r(C)p.r(C)p.r(U)p.r(C)p.r(G)p.r(G)p.r(C)p.r(G)p.r(G)p.r(A)p.r(G)p.r(A)p.r(U)p.d(T)p.d(T)}|RNA2{r(A)p.r(U)p.r(C)p.r(U)p.r(C)p.r(C)p.r(G)p.r(C)p.r(C)p.r(G)p.r(A)p.r(G)p.r(G)p.r(C)p.r(C)p.r(U)p.r(G)p.r(G)p.r(C)p.d(C)p.d(C)}$$$RNA1{StrandType:ss}|RNA2{StrandType:as}$	36.1%
RNA1{r(G)p.r(C)p.r(C)p.r(U)p.r(C)p.r(G)p.r(G)p.r(C)p.r(G)p.r(G)p.r(A)p.r(G)p.r(A)p.r(U)p.r(G)p.r(C)p.r(U)p.r(C)p.r(A)p.d(T)p.d(T)}|RNA2{r(U)p.r(G)p.r(A)p.r(G)p.r(C)p.r(A)p.r(U)p.r(C)p.r(U)p.r(C)p.r(C)p.r(G)p.r(C)p.r(C)p.r(G)p.r(A)p.r(G)p.r(G)p.r(C)p.d(C)p.d(T)}$$$RNA1{StrandType:ss}|RNA2{StrandType:as}$	90.2%
RNA1{r(G)p.r(C)p.r(C)p.r(U)p.r(U)p.r(U)p.r(G)p.r(C)p.r(A)p.r(C)p.r(C)p.r(G)p.r(G)p.r(G)p.r(G)p.r(C)p.r(C)p.r(A)p.r(G)p.d(T)p.d(T)}|RNA2{r(C)p.r(U)p.r(G)p.r(G)p.r(C)p.r(C)p.r(C)p.r(C)p.r(G)p.r(G)p.r(U)p.r(G)p.r(C)p.r(A)p.r(A)p.r(A)p.r(G)p.r(G)p.r(C)p.d(A)p.d(T)}$$$RNA1{StrandType:ss}|RNA2{StrandType:as}$	32.6%
RNA1{r(G)p.r(C)p.r(G)p.r(G)p.r(A)p.r(G)p.r(A)p.r(U)p.r(G)p.r(C)p.r(U)p.r(C)p.r(A)p.r(C)p.r(U)p.r(U)p.r(U)p.r(G)p.r(A)p.d(T)p.d(T)}|RNA2{r(U)p.r(C)p.r(A)p.r(A)p.r(A)p.r(G)p.r(U)p.r(G)p.r(A)p.r(G)p.r(C)p.r(A)p.r(U)p.r(C)p.r(U)p.r(C)p.r(C)p.r(G)p.r(C)p.d(C)p.d(G)}$$$RNA1{StrandType:ss}|RNA2{StrandType:as}$	108%
RNA1{r(G)p.r(C)p.r(U)p.r(C)p.r(A)p.r(C)p.r(U)p.r(U)p.r(U)p.r(G)p.r(A)p.r(C)p.r(A)p.r(A)p.r(G)p.r(G)p.r(A)p.r(U)p.r(G)p.d(T)p.d(T)}|RNA2{r(C)p.r(A)p.r(U)p.r(C)p.r(C)p.r(U)p.r(U)p.r(G)p.r(U)p.r(C)p.r(A)p.r(A)p.r(A)p.r(G)p.r(U)p.r(G)p.r(A)p.r(G)p.r(C)p.d(A)p.d(T)}$$$RNA1{StrandType:ss}|RNA2{StrandType:as}$	102%
RNA1{r(G)p.r(C)p.r(U)p.r(G)p.r(C)p.r(C)p.r(U)p.r(G)p.r(G)p.r(C)p.r(C)p.r(C)p.r(U)p.r(G)p.r(C)p.r(C)p.r(A)p.r(C)p.r(U)p.d(T)p.d(T)}|RNA2{r(A)p.r(G)p.r(U)p.r(G)p.r(G)p.r(C)p.r(A)p.r(G)p.r(G)p.r(G)p.r(C)p.r(C)p.r(A)p.r(G)p.r(G)p.r(C)p.r(A)p.r(G)p.r(C)p.d(C)p.d(T)}$$$RNA1{StrandType:ss}|RNA2{StrandType:as}$	64.3%
RNA1{r(G)p.r(C)p.r(U)p.r(U)p.r(C)p.r(G)p.r(C)p.r(A)p.r(A)p.r(G)p.r(G)p.r(G)p.r(G)p.r(A)p.r(G)p.r(A)p.r(U)p.r(C)p.r(A)p.d(T)p.d(T)}|RNA2{r(U)p.r(G)p.r(A)p.r(U)p.r(C)p.r(U)p.r(C)p.r(C)p.r(C)p.r(C)p.r(U)p.r(U)p.r(G)p.r(C)p.r(G)p.r(A)p.r(A)p.r(G)p.r(C)p.d(C)p.d(A)}$$$RNA1{StrandType:ss}|RNA2{StrandType:as}$	105%
RNA1{r(G)p.r(G)p.r(A)p.r(A)p.r(A)p.r(C)p.r(A)p.r(C)p.r(U)p.r(C)p.r(U)p.r(A)p.r(G)p.r(G)p.r(C)p.r(C)p.r(A)p.r(U)p.r(G)p.d(T)p.d(T)}|RNA2{r(C)p.r(A)p.r(U)p.r(G)p.r(G)p.r(C)p.r(C)p.r(U)p.r(A)p.r(G)p.r(A)p.r(G)p.r(U)p.r(G)p.r(U)p.r(U)p.r(U)p.r(C)p.r(C)p.d(T)p.d(G)}$$$RNA1{StrandType:ss}|RNA2{StrandType:as}$	89.7%
RNA1{r(G)p.r(G)p.r(A)p.r(A)p.r(A)p.r(U)p.r(U)p.r(U)p.r(U)p.r(A)p.r(C)p.r(C)p.r(U)p.r(U)p.r(C)p.r(A)p.r(C)p.r(G)p.r(A)p.d(T)p.d(T)}|RNA2{r(U)p.r(C)p.r(G)p.r(U)p.r(G)p.r(A)p.r(A)p.r(G)p.r(G)p.r(U)p.r(A)p.r(A)p.r(A)p.r(A)p.r(U)p.r(U)p.r(U)p.r(C)p.r(C)p.d(T)p.d(A)}$$$RNA1{StrandType:ss}|RNA2{StrandType:as}$	127%
RNA1{r(G)p.r(G)p.r(A)p.r(A)p.r(C)p.r(A)p.r(G)p.r(G)p.r(C)p.r(G)p.r(C)p.r(A)p.r(G)p.r(A)p.r(A)p.r(U)p.r(U)p.r(A)p.r(U)p.d(T)p.d(T)}|RNA2{r(A)p.r(U)p.r(A)p.r(A)p.r(U)p.r(U)p.r(C)p.r(U)p.r(G)p.r(C)p.r(G)p.r(C)p.r(C)p.r(U)p.r(G)p.r(U)p.r(U)p.r(C)p.r(C)p.d(C)p.d(A)}$$$RNA1{StrandType:ss}|RNA2{StrandType:as}$	104%
RNA1{r(G)p.r(G)p.r(A)p.r(A)p.r(G)p.r(C)p.r(C)p.r(G)p.r(G)p.r(A)p.r(G)p.r(A)p.r(A)p.r(G)p.r(U)p.r(G)p.r(A)p.r(C)p.r(C)p.d(T)p.d(T)}|RNA2{r(G)p.r(G)p.r(U)p.r(C)p.r(A)p.r(C)p.r(U)p.r(U)p.r(C)p.r(U)p.r(C)p.r(C)p.r(G)p.r(G)p.r(C)p.r(U)p.r(U)p.r(C)p.r(C)p.d(T)p.d(G)}$$$RNA1{StrandType:ss}|RNA2{StrandType:as}$	83%
RNA1{r(G)p.r(G)p.r(A)p.r(C)p.r(A)p.r(A)p.r(A)p.r(C)p.r(U)p.r(G)p.r(A)p.r(G)p.r(G)p.r(G)p.r(A)p.r(A)p.r(A)p.r(U)p.r(G)p.d(T)p.d(T)}|RNA2{r(C)p.r(A)p.r(U)p.r(U)p.r(U)p.r(C)p.r(C)p.r(C)p.r(U)p.r(C)p.r(A)p.r(G)p.r(U)p.r(U)p.r(U)p.r(G)p.r(U)p.r(C)p.r(C)p.d(A)p.d(C)}$$$RNA1{StrandType:ss}|RNA2{StrandType:as}$	83%
RNA1{r(G)p.r(G)p.r(A)p.r(C)p.r(G)p.r(G)p.r(A)p.r(U)p.r(G)p.r(G)p.r(U)p.r(G)p.r(A)p.r(G)p.r(G)p.r(A)p.r(C)p.r(U)p.r(C)p.d(T)p.d(T)}|RNA2{r(G)p.r(A)p.r(G)p.r(U)p.r(C)p.r(C)p.r(U)p.r(C)p.r(A)p.r(C)p.r(C)p.r(A)p.r(U)p.r(C)p.r(C)p.r(G)p.r(U)p.r(C)p.r(C)p.d(A)p.d(G)}$$$RNA1{StrandType:ss}|RNA2{StrandType:as}$	81.1%
RNA1{r(G)p.r(G)p.r(A)p.r(C)p.r(U)p.r(C)p.r(A)p.r(G)p.r(G)p.r(C)p.r(G)p.r(U)p.r(G)p.r(A)p.r(A)p.r(C)p.r(U)p.r(U)p.r(C)p.d(T)p.d(T)}|RNA2{r(G)p.r(A)p.r(A)p.r(G)p.r(U)p.r(U)p.r(C)p.r(A)p.r(C)p.r(G)p.r(C)p.r(C)p.r(U)p.r(G)p.r(A)p.r(G)p.r(U)p.r(C)p.r(C)p.d(T)p.d(C)}$$$RNA1{StrandType:ss}|RNA2{StrandType:as}$	70.4%
